Reference: PubChem BioAssay AID248 (DTP/NCI, 2004)
Several values for one entry are separate records, joined by “and”; a condition that tells them apart may be missing. Identical values can stand only once. Inconclusive results and toxic doses are left out. Rule as the data show it: active = T/C of 150% or more; inactive = T/C below 125%.

Tested on: L1210 leukemia ip in BDF1 mice, survival T/C
Test: NCI In Vivo Anticancer Drug Screen. Data for tumor model L1210 Leukemia (intraperitoneal) in B6D2F1 (BDF1) mice
Settings: endpoint: mean survival time, higher = longer survival
Outline: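 Antitumor effect is assessed in tumor-bearing animals. Survival in the compound arm is compared with a vehicle-dosed control arm and expressed as their quotient.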

[1] = dose: 100.0 mg/kg/injection, schedule: Q01DX009 (ip), vehicle: saline
[2] = dose: 200.0 mg/kg/injection, schedule: Q01DX009 (ip), vehicle: saline
[3] = dose: 400.0 mg/kg/injection, schedule: Q01DX009 (ip), vehicle: saline

Measured: T/C

NC(CC(=O)O)C(=O)O (centres undefined)
inactive: dose: 100.0 mg/kg/injection, schedule: Q01DX001 (ip), vehicle: carboxymethylcellulose (CMC) 94 % of control | dose: 100.0 mg/kg/injection, schedule: Q01DX001 (ip), vehicle: saline 102 % of control and 95 % of control | [1] 97 % of control | dose: 100.0 mg/kg/injection, schedule: Q04DX002 (ip), vehicle: Klucel (hydroxypropylcellulose) (HPC) 98 % of control | dose: 200.0 mg/kg/injection, schedule: Q01DX001 (ip), vehicle: carboxymethylcellulose (CMC) 89 % of control | dose: 200.0 mg/kg/injection, schedule: Q01DX001 (ip), vehicle: saline 96 % of control and 93 % of control | [2] 100 % of control | dose: 200.0 mg/kg/injection, schedule: Q04DX002 (ip), vehicle: Klucel (hydroxypropylcellulose) (HPC) 98 % of control | dose: 400.0 mg/kg/injection, schedule: Q01DX001 (ip), vehicle: carboxymethylcellulose (CMC) 92 % of control | dose: 400.0 mg/kg/injection, schedule: Q01DX001 (ip), vehicle: saline 102 % of control and 90 % of control | [3] 97 % of control | dose: 400.0 mg/kg/injection, schedule: Q01DX030 (sc), vehicle: other 97 % of control | dose: 400.0 mg/kg/injection, schedule: Q04DX002 (ip), vehicle: Klucel (hydroxypropylcellulose) (HPC) 95 % of control | dose: 800.0 mg/kg/injection, schedule: Q01DX030 (sc), vehicle: other 96 % of control

Nc1ccc(CCC(=O)NC(CCC(=O)O)C(=O)O)cc1 (centres undefined)
inactive: [1] 102 % of control | dose: 100.0 mg/kg/injection, schedule: Q04DX002 (ip), vehicle: saline 98 % of control | [2] 108 % of control | dose: 200.0 mg/kg/injection, schedule: Q04DX002 (ip), vehicle: saline 105 % of control | [3] 96 % of control | dose: 400.0 mg/kg/injection, schedule: Q04DX002 (ip), vehicle: saline 94 % of control

O=C(NC1CCCCC1)N(C1CCCCC1)C1CCCCC1
inactive: dose: 100.0 mg/kg/injection, schedule: Q01DX009 (ip), vehicle: Klucel (hydroxypropylcellulose) (HPC) 90 % of control | dose: 200.0 mg/kg/injection, schedule: Q01DX009 (ip), vehicle: Klucel (hydroxypropylcellulose) (HPC) 103 % of control | dose: 400.0 mg/kg/injection, schedule: Q01DX009 (ip), vehicle: Klucel (hydroxypropylcellulose) (HPC) 92 % of control

COc1cc(C=Nc2ccc(-n3ccnc3C)cc2)ccc1N(CCCl)CCCl
inactive: dose: 1.0 mg/kg/injection, schedule: Q01DX009 (ip), vehicle: Klucel (hydroxypropylcellulose) (HPC) 110 % of control | dose: 2.0 mg/kg/injection, schedule: Q01DX009 (ip), vehicle: Klucel (hydroxypropylcellulose) (HPC) 114 % of control | dose: 2.5 mg/kg/injection, schedule: Q01DX009 (ip), vehicle: Klucel (hydroxypropylcellulose) (HPC) 104 % of control and 106 % of control | dose: 3.8 mg/kg/injection, schedule: Q01DX009 (ip), vehicle: Klucel (hydroxypropylcellulose) (HPC) 104 % of control | dose: 5.0 mg/kg/injection, schedule: Q01DX009 (ip), vehicle: Klucel (hydroxypropylcellulose) (HPC) 114 % of control | dose: 8.8 mg/kg/injection, schedule: Q04DX003 (ip), vehicle: Klucel (hydroxypropylcellulose) (HPC) 98 % of control and 123 % of control | dose: 19.0 mg/kg/injection, schedule: Q01DX009 (ip), vehicle: Klucel (hydroxypropylcellulose) (HPC) 110 % of control | dose: 20.0 mg/kg/injection, schedule: Q01DX009 (ip), vehicle: Klucel (hydroxypropylcellulose) (HPC) 124 % of control | dose: 29.0 mg/kg/injection, schedule: Q04DX003 (ip), vehicle: Klucel (hydroxypropylcellulose) (HPC) 102 % of control | dose: 30.0 mg/kg/injection, schedule: Q04DX003 (ip), vehicle: Klucel (hydroxypropylcellulose) (HPC) 104 % of control

Cc1ccc(S(=O)(=O)OC2COC3C2OC2OC(C)(C)OC23)cc1 (centres undefined)
inactive: dose: 100.0 mg/kg/injection, schedule: Q04DX003 (ip), vehicle: saline with Tween-80 112 % of control | dose: 200.0 mg/kg/injection, schedule: Q04DX003 (ip), vehicle: saline with Tween-80 101 % of control | dose: 400.0 mg/kg/injection, schedule: Q04DX003 (ip), vehicle: saline with Tween-80 106 % of control

C[N+](C)(Cc1ccccc1)C1c2ccccc2-c2ccccc21
inactive: dose: 0.5 mg/kg/injection, schedule: Q04DX002 (ip), vehicle: Klucel (hydroxypropylcellulose) (HPC) 109 % of control | dose: 1.0 mg/kg/injection, schedule: Q04DX002 (ip), vehicle: Klucel (hydroxypropylcellulose) (HPC) 109 % of control | dose: 2.0 mg/kg/injection, schedule: Q04DX002 (ip), vehicle: Klucel (hydroxypropylcellulose) (HPC) 109 % of control
